Where “and” joins values, the source holds several entries; their conditions need not be identical. Equal values may be shown once. Read-outs that look alike come from different tables or passages of the source.
Experiments:
[1] = biological target: transglutaminase (TGase I); experiment: Transglutaminase (Tgase) ELISA assay in cultured keratinocytes with retinol and boosters; assay type: cell-based, human; details: for TG as % C, Compd 3: Compound 3 alone; for TG as % C, Compd 3 / TG as % C Compd 2 / TG as % C Compd 1: concentration one log below IC20; for IC20: IC20 (80% of control)
[2] = test system: cytochrome P450 dependent retinoic acid oxidation; experiment: Assay for NADPH dependent retinoic acid oxidation, rat liver microsomes (to identify B5); details: for % Inhibition Retinoic Acid (10 μM): compound 10 μM; for % Inhibition Retinoic Acid (100 μM): compound 100 μM
ARAT = experiment: Assay for ARAT activity, bovine RPE microsomes (to identify B1); assay type: biochemical; details: for % Inhibition ARAT (100 jm): compound 100 jm; for % Inhibition ARAT (10 jm): compound 10 jm
LRAT = biological target: T1, LRAT (Bos taurus, UniProt Q9BGL2); experiment: Assay for LRAT activity, bovine RPE microsomes (to identify B1); assay type: biochemical; details: for % Inhibition LRAT (100 jm): compound 100 jm; for % Inhibition LRAT (10 jm): compound 10 jm
T1 construct: followed by approximately 15 μg of RPE microsomal protein; tissue W. L. Lawson Co., Lincoln, Nebr., USA (eyecups); host or cells: bovine retinal pigment epithelium microsomes
T1 sequence (Q9BGL2 1-230): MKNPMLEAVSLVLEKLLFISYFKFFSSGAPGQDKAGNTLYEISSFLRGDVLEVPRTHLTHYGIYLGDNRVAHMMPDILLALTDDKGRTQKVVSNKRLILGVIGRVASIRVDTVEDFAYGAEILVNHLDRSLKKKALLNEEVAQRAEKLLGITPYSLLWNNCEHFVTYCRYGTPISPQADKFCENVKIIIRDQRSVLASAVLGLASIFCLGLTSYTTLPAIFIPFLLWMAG

Retinal Reductase = experiment: Assay for retinal reductase activity, rat liver microsomes (to identify B3); assay type: biochemical; details: test compound final 100 μM
[3] = in the presence of 10^-7M retinol
[4] = compound tested individually in the presence of 10^-7 M retinol
[5] = Tgase inhibition, compound tested individually in the presence of 10^-7 M retinol, read-out: IC50
[6] = Compound 2 alone, in the presence of 10^-7M retinol
[7] = B1 table, booster concentration which with 10^−7 M retinol inhibits TGase by 50%, same values in the 19th table (Molar), read-out: Overall TG (IC 50)
[8] = Compound 1 alone, in the presence of 10^-7M retinol

Compound: CCCCCCCC/C=C\CCCCCCCC1=NCCN1CCO [Oleyl Hydroxyethylimidazoline]
- IC50 ([1]; B5 table, with 10^−7 M retinol, read-out: Overall TG (IC 50)): 30.2 µM
- TG as % C, Compd 3 [1, 3]: 76 % C
- IC20 [1, 4]: 5.65 µM
- IC50 [1, 5]: 30.2 µM
- TG as % C Compd 2 ([1]; compound 2 alone, with retinol, listed as Oleoyl hydorxyethylimdazoline): 92 % C
- TG as % C Compd 2 ([1]; compound 2 alone, with retinol, listed as Oleoyl hydroxyethylimiazoline): 73 % C
- % Inhibition Retinoic Acid (10 μM) [2]: 54%
- % Inhibition Retinoic Acid (100 μM) [2]: 80%

Compound: Santanol
- % Inhibition ARAT (100 jm) (ARAT): 15%
- % Inhibition LRAT (100 jm) (LRAT): 43%

Compound: Cocoyl Monoethanolamide
- % Inhibition ARAT (100 jm) (ARAT): 13%
- % Inhibition LRAT (100 jm) (LRAT): 34%

Compound: c1ccc(-c2ccc(C(c3ccccc3)n3ccnc3)cc2)cc1 (stereo not shown) [Bifonazole]
- % Inhibition Retinoic Acid (10 μM) [2]: 89%
- % Inhibition Retinoic Acid (100 μM) [2]: 100%

Compound: CC(=O)N1CCN(c2ccc(OCC3COC(Cn4ccnc4)(c4ccc(Cl)cc4Cl)O3)cc2)CC1 (stereo not shown) [Ketoconazole, reference compound]
- TG as % C Compd 2 [1, 6]: 85 % C
- IC20 [1, 4]: 0.0552 µM
- % Inhibition Retinoic Acid (10 μM) [2]: 84%
- % Inhibition Retinoic Acid (100 μM) [2]: 84%

Compound: Isocyclogeraniol
- % Inhibition ARAT (100 jm) (ARAT): 18%
- % Inhibition LRAT (100 jm) (LRAT): 16%

Compound: Isobutyl Ionone
- % Inhibition ARAT (100 jm) (ARAT): 8%
- % Inhibition LRAT (100 jm) (LRAT): 45%

Compound: Santalone
- % Inhibition ARAT (100 jm) (ARAT): 23%
- % Inhibition LRAT (100 jm) (LRAT): 12%

Compound: CC1(C)[C@@H](O)CC[C@]2(C)[C@H]3C(=O)C=C4[C@@H]5C[C@@](C)(C(=O)O)CC[C@]5(C)CC[C@@]4(C)[C@]3(C)CC[C@@H]12 [Glycyrretinic Acid, Glycyrrhetinic Acid]
- % Inhibition Retinal Reductase (Retinal Reductase): 38% +/− 1
- TG as % C Compd 2 [1, 6]: 91 % C
- TG as % C, Compd 3 [1, 3]: 91 % C
- IC20 [1, 4]: 5.96 µM
- IC50 [1, 5]: 8.64 µM
- TG as % C Compd 2 ([1]; compound 2 alone, with retinol): 92 % C

Compound: Clc1ccccc1C(c1ccccc1)(c1ccccc1)n1ccnc1 [Clotrimazole, reference compound]
- TG as % C, Compd 3 [1, 3]: 79 % C
- % Inhibition Retinoic Acid (10 μM) [2]: 76%

Compound: C/C=C\C(=O)C1C(C)=CCCC1(C)C (stereo not drawn) [Alpha-Damascone]
- % Inhibition LRAT (10 jm) (LRAT): 87% +/− 6
- % Inhibition LRAT (100 jm) (LRAT): 98% +/− 1
- IC50 [1, 7]: 335 µM
- IC20 [1, 4]: 169 µM
- IC50 [1, 5]: 335 µM
- TG as % C Compd 1 ([1]; compound 1 alone, with retinol, listed as Alpha-demascone): 95 % C and 112 % C

Compound: Clc1ccc(COC(Cn2ccnc2)c2ccc(Cl)cc2Cl)cc1 (stereo not shown) [Econazole]
- % Inhibition Retinoic Acid (10 μM) [2]: 88%
- % Inhibition Retinoic Acid (100 μM) [2]: 100%

Compound: CC=CC(=O)C1CCC(C)(C)C=C1C (stereo not shown) [Isodamascone]
- % Inhibition ARAT (100 jm) (ARAT): 80%
- % Inhibition LRAT (100 jm) (LRAT): 92%

Compound: Clc1ccc(COC(Cn2ccnc2)c2ccc(Cl)cc2Cl)c(Cl)c1 (stereo not shown) [Miconazole, reference compound]
- TG as % C Compd 2 [1, 6]: 92 % C
- TG as % C, Compd 3 [1, 3]: 82 % C
- IC20 [1, 4]: 0.0842 µM
- % Inhibition Retinoic Acid (10 μM) [2]: 74%
- % Inhibition Retinoic Acid (100 μM) [2]: 86%

Compound: CCCCC/C=C\C/C=C\CCCCCCCC(=O)O [Linoleic Acid]
- % Inhibition Retinal Reductase (Retinal Reductase): 62% +/− 2
- TG as % C, Compd 3 [1, 3]: 11 % C
- IC20 [1, 4]: 89.5 µM

Compound: CCCCCCCCCCCCCCCCCCCC(=O)O [Arachidic Acid]
- % Inhibition Retinal Reductase (Retinal Reductase): 20%

Compound: CC(C)(C)C(=O)C(Oc1ccc(Cl)cc1)n1ccnc1 (stereo not shown) [Climbazole, reference compound]
- TG as % C Compd 2 [1, 6]: 84 % C
- TG as % C, Compd 3 [1, 3]: 84 % C
- IC20 [1, 4]: 0.245 µM
- % Inhibition Retinoic Acid (10 μM) [2]: 80%
- % Inhibition Retinoic Acid (100 μM) [2]: 92%

Compound: CCCCCCCCCCCCCC(=O)O [Myristic Acid]
- % Inhibition Retinal Reductase (Retinal Reductase): 26%
- TG as % C Compd 1 [1, 8]: 79 % C
- IC20 [1, 4]: 10.5 µM
- TG as % C Compd 1 ([1]; compound 1 alone, with retinol): 110 % C

Compound: CC1(C)[C@@H](OC(=O)CCC(=O)O)CC[C@]2(C)[C@H]3C(=O)C=C4[C@@H]5C[C@@](C)(C(=O)O)CC[C@]5(C)CC[C@@]4(C)[C@]3(C)CC[C@@H]12 [Carbenoxolone, reference compound]
- % Inhibition Retinal Reductase (Retinal Reductase): 26% +/− 2
- TG as % C, Compd 3 [1, 3]: 88 % C
- IC20 [1, 4]: 0.2 µM
- TG as % C Compd 2 ([1]; compound 2 alone, with retinol): 164 % C

Compound: Acetyl Sphingosine
- % Inhibition ARAT (10 jm) (ARAT): 19% +/− 12
- % Inhibition ARAT (100 jm) (ARAT): 62% +/− 11
- % Inhibition LRAT (10 jm) (LRAT): 10% +/− 10
- % Inhibition LRAT (100 jm) (LRAT): 50% +/− 18
- IC50 [1, 7]: 6.78 µM
- TG as % C, Compd 3 [1, 3]: 99 % C
- IC20 [1, 4]: 5.15 µM
- IC50 [1, 5]: 6.78 µM

Compound: CC(C)(C(=O)c1cccnc1)c1cccnc1 [2-Methyl-1,2-di-3-Pyridyl-1-Propane]
- % Inhibition Retinoic Acid (100 μM) [2]: 47%

Compound: COc1cc(C=O)ccc1O [Vanillin]
- % Inhibition Retinal Reductase (Retinal Reductase): 6%
- TG as % C, Compd 3 [1, 3]: 134 % C
- IC20 [1, 4]: 8470 µM

Compound: CC(=O)/C=C/C=C(\C)CCC=C(C)C [Pseudoionone]
- % Inhibition LRAT (100 jm) (LRAT): 37%

Compound: CCCCCCCC(=O)OCC(COP(=O)(O)OCCN)OC(=O)CCCCCCC (stereo not shown) [Dioctylphosphatidyl Ethanolamine]
- % Inhibition ARAT (10 jm) (ARAT): 23%
- % Inhibition LRAT (10 jm) (LRAT): 0%
- % Inhibition LRAT (100 jm) (LRAT): 17% +/− 17

Compound: Alpha-Methyl Ionone
- % Inhibition ARAT (100 jm) (ARAT): 67%
- % Inhibition LRAT (100 jm) (LRAT): 77%

Compound: CCCCC/C=C\C/C=C\CCCCCCCC(=O)N(CCO)CCO [Linoleoyl Diethanolamide]
- % Inhibition LRAT (10 jm) (LRAT): 11% +/− 9
- % Inhibition LRAT (100 jm) (LRAT): 51% +/− 15
- % Inhibition Overall TG (—ROH/RE) ([1]; % (booster+retinol inhibition/control inhibition) − % (ROH inhibition/control inhibition)): 59%

Compound: O=c1c(O)c(-c2ccc(O)c(O)c2)oc2cc(O)cc(O)c12 [Quercetin]
- TG as % C, Compd 3 [1, 3]: 92 % C
- IC20 [1, 4]: 51.1 µM
- % Inhibition Retinoic Acid (10 μM) [2]: 40%
- % Inhibition Retinoic Acid (100 μM) [2]: 74%

Compound: C/C=C/C(=O)C1=C(C)CCCC1(C)C [Beta-Damascone]
- % Inhibition LRAT (10 jm) (LRAT): 52%
- % Inhibition LRAT (100 jm) (LRAT): 92%

Compound: Glycerol-PCA-Oleate
- % Inhibition ARAT (100 jm) (ARAT): 41% +/− 6
- % Inhibition LRAT (100 jm) (LRAT): 58% +/− 2

Compound: Hexanoyl Sphingosine
- % Inhibition LRAT (100 jm) (LRAT): 37% +/− 9
- IC50 [1, 7]: 99.9 µM
- TG as % C Compd 1 [1, 8]: 104 % C
- IC20 [1, 4]: 69.4 µM
- IC50 [1, 5]: 99.9 µM
- TG as % C Compd 1 ([1]; compound 1 alone, with retinol): 122 % C and 99.3 % C and 99 % C and 109 % C

Compound: Delta-Damascone
- % Inhibition LRAT (10 jm) (LRAT): 64%
- % Inhibition LRAT (100 jm) (LRAT): 95%

Compound: CC(=O)CCC1C(C)=CCCC1(C)C (stereo not drawn) [Dihydro Alpha-Ionone]
- % Inhibition ARAT (100 jm) (ARAT): 13%
- % Inhibition LRAT (100 jm) (LRAT): 18%

Compound: CCCCC/C=C\C/C=C\C/C=C\C/C=C\CCCC(=O)O [Arachidonic Acid]
- % Inhibition Retinal Reductase (Retinal Reductase): 49%

Compound: Brahmanol
- % Inhibition ARAT (100 jm) (ARAT): 70%
- % Inhibition LRAT (100 jm) (LRAT): 75%
